Assay results: patent US20150105252A1, “SUBSTITUTED PYRAZOLES AS HERBICIDES” (E I DU PONT DE NEMOURS AND COMPANY, priority 2013, published 2015)

Key:
lambsquarters = experiment: Test D postemergence; assay type: in vivo, Chenopodium album; settings: scale 0 to 100
Text: (§1) Seeds of plant species selected from bluegrass (annual bluegrass, Poa annua), blackgrass (Alopecurus myosuroides), canarygrass (littleseed canarygrass, Phalaris minor), chickweed (common chickweed, Stellaria media), galium (catchweed bedstraw, Galium aparine), bromegrass, downy (downy bromegrass, Bromus tectorum), field poppy (Papaver rhoeas), field violet (Viola arvensis), foxtail, green (green foxtail, Setaria viridis), deadnettle (henbit deadnettle, Lamium amplexicaule), ryegrass, Italian (Italian ryegrass, Lolium multiflorum), kochia (Kochia scoparia), lambsquarters (Chenopodium album), oilseed rape (Brassica napus), pigweed (redroot pigweed, Amaranthus retroflexus), chamomile (scentless chamomile, Matricaria inodora), speedwell (bird's-eye speedwell, Veronica persica), barley, spring (spring barley, Hordeum vulgare), wheat, spring (spring wheat, Triticum aestivum), buckwheat, wild (wild buckwheat, Polygonum convolvulus), mustard, wild (wild mustard, Sinapis arvensis), oat, wild (wild oat, Avena fatua), radish, wild (wild radish, Raphanus raphanistrum), windgrass (Apera spica-venti), Russian thistle (Salsola kali), barley, winter (winter barley, Hordeum vulgare), and wheat, winter (winter wheat, Triticum aestivum) were planted into a silt loam soil and treated preemergence with test chemicals formulated in a non-phytotoxic solvent mixture which included a surfactant.
(§2) At the same time, these species were planted in pots containing Redi-Earth® planting medium (Scotts Company, 14111 Scottslawn Road, Marysville, Ohio 43041) comprising spaghnum peat moss, vermiculite, wetting agent and starter nutrients and treated with postemergence applications of the test chemicals formulated in the same manner. Plants ranged in height from 2 to 18 cm (1- to 4-leaf stage). Treated plants and controls were maintained in a controlled growth environment for 14 to 21 days after which time all species were compared to controls and visually evaluated. Plant response ratings, summarized in Table D, are based on a scale of 0 to 100 where 0 is no effect and 100 is complete control. A dash (-) response means no test result.

oilseed rape = experiment: Test D postemergence; assay type: in vivo, Brassica napus; settings: scale 0 to 100
Text: as §1, §2

oat, wild = experiment: Test D postemergence; assay type: in vivo, Avena fatua; settings: scale 0 to 100
Text: as §1, §2

wheat, winter = experiment: Test D postemergence; assay type: in vivo, Triticum aestivum; settings: scale 0 to 100
Text: as §1, §2

wheat, spring = experiment: Test D postemergence; assay type: in vivo, Triticum aestivum; settings: scale 0 to 100
Text: as §1, §2

bromegrass, downy = experiment: Test D preemergence; assay type: in vivo, Bromus tectorum; settings: scale 0 to 100
Text: as §1, §2

barley, spring = experiment: Test D postemergence; assay type: in vivo, Hordeum vulgare; settings: scale 0 to 100
Text: as §1, §2

barley, winter = experiment: Test D postemergence; assay type: in vivo, Hordeum vulgare; settings: scale 0 to 100
Text: as §1, §2

green foxtail = experiment: Test F preemergence; assay type: in vivo, Setaria viridis
Text: (§3) Seeds of plant species selected from corn (Zea mays), soybean (Glycine max), velvetleaf (Abutilon theophrasti), lambsquarters (Chenopodium album), wild poinsettia (Euphorbia heterophylla), pigweed, palmer (palmer pigweed, Amaranthus palmeri), common waterhemp (Amaranthus rudis), surinam grass (Brachiaria decumbens), large crabgrass (Digitaria sanguinalis), crabgrass, Brazil (Brazilian crabgrass, Digitaria horizontalis), fall panicum (Panicum dichotomiflorum), giant foxtail (Setaria faberii), green foxtail (Setaria viridis), goosegrass (Eleusine indica), johnsongrass (Sorghum halepense), common ragweed (Ambrosia elation), barnyardgrass (Echinochloa crus-galli), southern sandbur (Cenchrus echinatus), arrowleaf sida (Sida rhombifolia), Italian ryegrass (Lolium multiflorum), dayflower, VA (Virginia (VA) dayflower, Commelina virginica), field bindweed (Convolvulus arvensis), cocklebur (common cocklebur, Xanthium strumarium), morningglory (Ipomoea coccinea), nightshade (eastern black nightshade, Solanum ptycanthum), kochia (Kochia scoparia), yellow nutsedge (Cyperus esculentus), and hairy beggarticks (Bidens pilosa), were planted into a silt loam soil and treated preemergence with test chemicals formulated in a non-phytotoxic solvent mixture which included a surfactant.
(§4) At the same time, plants from these crop and weed species and also horseweed (Canada horseweed, Conyza canadensis), smartweed (ladysthumb smartweed, Polygonum persicaria), waterhemp_RES1, (ALS & Triazine resistant common waterhemp, Amaranthus rudis), and waterhemp_RES2, (ALS & HPPD resistant common waterhemp, Amaranthus rudis) were treated with postemergence applications of test chemicals formulated in the same manner. Plants ranged in height from 2 to 18 cm for postemergence treatments (1- to 4-leaf stage). Treated plants and controls were maintained in a greenhouse for 14 to 21 days, after which time all species were compared to controls and visually evaluated. Plant response ratings, summarized in Table F, are based on a scale of 0 to 100 where 0 is no effect and 100 is complete control. A dash (-) response means no test result.

giant foxtail = experiment: Test F preemergence; assay type: in vivo, Setaria faberii
Text: as §3, §4

barnyardgrass = experiment: Test F preemergence; assay type: in vivo, Echinochloa crus-galli
Text: as §3, §4

common waterhemp = experiment: Test F preemergence; assay type: in vivo, Amaranthus rudis
Text: as §3, §4

field bindweed = experiment: Test F preemergence; assay type: in vivo, Convolvulus arvensis
Text: as §3, §4

[1] = Preemergence, 31 g ai/ha, scale 0 to 100
[2] = Preemergence, 62 g ai/ha, scale 0 to 100
[3] = Preemergence, 125 g ai/ha, scale 0 to 100
[4] = preemergence, 8 g ai/ha, scale 0 to 100, 100 is complete control
[5] = preemergence, 16 g ai/ha, scale 0 to 100, 100 is complete control

For `CCc1cc(C(=O)NC(C)C)nn1Cc1ccnc(C(F)(F)F)c1` [Compound 103], which “Lambsquarters plant response rating” value (lambsquarters; Postemergence, 31 g ai/ha) is on record?
The value was 35.

What about the “Lambsquarters plant response rating” value (lambsquarters; Postemergence, 125 g ai/ha) of the same compound?
Its value is 40.

And the “Lambsquarters plant response rating” value (lambsquarters; Postemergence, 250 g ai/ha)?
The value was 60.

What about the “Lambsquarters plant response rating” value (lambsquarters; postemergence, 62 g ai/ha) of the same compound?
Its value is 30.

What about the “Oilseed Rape plant response rating” value (oilseed rape; Postemergence, 31 g ai/ha) of the same compound?
Its value is 25.

What about the “Oilseed Rape plant response rating” value (oilseed rape; Postemergence, 125 g ai/ha) of the same compound?
Its value is 35.

And the “Oilseed Rape plant response rating” value (oilseed rape; Postemergence, 250 g ai/ha)?
Its value is 45.

And the “Oilseed Rape plant response rating” value (oilseed rape; postemergence, 62 g ai/ha)?
The value was 35.

What about the “Oat, Wild plant response rating” value (oat, wild; Postemergence, 31 g ai/ha) of the same compound?
Its value is 10.

What about the “Oat, Wild plant response rating” value (oat, wild; Postemergence, 125 g ai/ha) of the same compound?
The value was 20.

And the “Oat, Wild plant response rating” value (oat, wild; Postemergence, 250 g ai/ha)?
The value was 25.

What about the “Oat, Wild plant response rating” value (oat, wild; postemergence, 62 g ai/ha) of the same compound?
Its value is 15.

And the “Wheat, Winter plant response rating” value (wheat, winter; Postemergence, 31 g ai/ha)?
The value was 0.

What about the “Wheat, Winter plant response rating” value (wheat, winter; Postemergence, 125 g ai/ha) of the same compound?
Its value is 10.

And the “Wheat, Winter plant response rating” value (wheat, winter; Postemergence, 250 g ai/ha)?
The value was 30.

What about the “Wheat, Winter plant response rating” value (wheat, winter; postemergence, 62 g ai/ha) of the same compound?
The value was 5.

What about the “Wheat, Spring plant response rating” value (wheat, spring; Postemergence, 31 g ai/ha) of the same compound?
The value was 0.

And the “Wheat, Spring plant response rating” value (wheat, spring; Postemergence, 125 g ai/ha)?
Its value is 0.

And the “Wheat, Spring plant response rating” value (wheat, spring; Postemergence, 250 g ai/ha)?
Its value is 5.

What about the “Wheat, Spring plant response rating” value (wheat, spring; postemergence, 62 g ai/ha) of the same compound?
The value was 0.

What about the “Plant response rating, Bromegrass, Downy” value (bromegrass, downy; 31 g ai/ha) of the same compound?
The value was 5.

And the “Plant response rating, Bromegrass, Downy” value (bromegrass, downy; 62 g ai/ha)?
Its value is 10.

What about the “Plant response rating, Bromegrass, Downy” value (bromegrass, downy; 125 g ai/ha) of the same compound?
The value was 40.

What about the “Plant response rating, Bromegrass, Downy” value (bromegrass, downy; 250 g ai/ha) of the same compound?
Its value is 85.

What about the “Barley, Spring plant response rating” value (barley, spring; Postemergence, 31 g ai/ha) of the same compound?
The value was 0.

And the “Barley, Spring plant response rating” value (barley, spring; Postemergence, 125 g ai/ha)?
Its value is 10.

And the “Barley, Spring plant response rating” value (barley, spring; Postemergence, 250 g ai/ha)?
Its value is 15.

What about the “Barley, Spring plant response rating” value (barley, spring; postemergence, 62 g ai/ha) of the same compound?
Its value is 0.

What about the “Barley, Winter plant response rating” value (barley, winter; Postemergence, 31 g ai/ha) of the same compound?
The value was 0.

And the “Barley, Winter plant response rating” value (barley, winter; Postemergence, 125 g ai/ha)?
The value was 5.

And the “Barley, Winter plant response rating” value (barley, winter; Postemergence, 250 g ai/ha)?
Its value is 15.

What about the “Barley, Winter plant response rating” value (barley, winter; postemergence, 62 g ai/ha) of the same compound?
Its value is 5.

With `CCOc1cc(C(=O)NCC(F)(F)F)nn1Cc1ccnc(C(F)(F)F)c1` [Compound 104] as the compound, how does the “Plant response rating, Green Foxtail” value (green foxtail; [1]) read?
The value was 100.

What about the “Plant response rating, Green Foxtail” value (green foxtail; [2]) of the same compound?
Its value is 100.

What about the “Plant response rating, Green Foxtail” value (green foxtail; [3]) of the same compound?
The value was 100.

And the “Plant response rating, Green Foxtail” value (green foxtail; [4])?
The value was 5.

What about the “Plant response rating, Green Foxtail” value (green foxtail; [5]) of the same compound?
The value was 60.

What about the “Plant response rating, Giant Foxtail” value (giant foxtail; [1]) of the same compound?
The value was 100.

And the “Plant response rating, Giant Foxtail” value (giant foxtail; [2])?
Its value is 100.

What about the “Plant response rating, Giant Foxtail” value (giant foxtail; [3]) of the same compound?
The value was 100.

What about the “Plant response rating, Giant Foxtail” value (giant foxtail; [4]) of the same compound?
Its value is 25.

And the “Plant response rating, Giant Foxtail” value (giant foxtail; [5])?
The value was 30.

And the “Plant response rating, Barnyardgrass” value (barnyardgrass; [1])?
The value was 50.

What about the “Plant response rating, Barnyardgrass” value (barnyardgrass; [2]) of the same compound?
Its value is 100.

What about the “Plant response rating, Barnyardgrass” value (barnyardgrass; [3]) of the same compound?
Its value is 100.

What about the “Plant response rating, Barnyardgrass” value (barnyardgrass; [4]) of the same compound?
Its value is 10.

And the “Plant response rating, Barnyardgrass” value (barnyardgrass; [5])?
The value was 20.

And the “Plant response rating, Common Waterhemp” value (common waterhemp; [1])?
Its value is 100.

And the “Plant response rating, Common Waterhemp” value (common waterhemp; [2])?
Its value is 100.

What about the “Plant response rating, Common Waterhemp” value (common waterhemp; [3]) of the same compound?
The value was 100.

And the “Plant response rating, Common Waterhemp” value (common waterhemp; [4])?
The value was 65.

And the “Plant response rating, Common Waterhemp” value (common waterhemp; [5])?
The value was 98.

And the “Plant response rating, Field Bindweed” value (field bindweed; [1])?
The value was 30.

What about the “Plant response rating, Field Bindweed” value (field bindweed; [2]) of the same compound?
The value was 50.

What about the “Plant response rating, Field Bindweed” value (field bindweed; [3]) of the same compound?
Its value is 95.

And the “Plant response rating, Field Bindweed” value (field bindweed; [4])?
The value was 0.

And the “Plant response rating, Field Bindweed” value (field bindweed; [5])?
Its value is 10.

For `CCNC(=O)c1cc(CCCl)n(Cc2ccnc(C(F)(F)F)c2)n1` [Compound 179], which “Plant response rating, Green Foxtail” value (green foxtail; [1]) is on record?
The value was 20.

And the “Plant response rating, Green Foxtail” value (green foxtail; [2])?
The value was 20.

And the “Plant response rating, Green Foxtail” value (green foxtail; [3])?
Its value is 70.

And the “Plant response rating, Green Foxtail” value (green foxtail; [4])?
Its value is 0.

And the “Plant response rating, Giant Foxtail” value (giant foxtail; [1])?
Its value is 25.

What about the “Plant response rating, Giant Foxtail” value (giant foxtail; [2]) of the same compound?
Its value is 40.

What about the “Plant response rating, Giant Foxtail” value (giant foxtail; [3]) of the same compound?
Its value is 98.

What about the “Plant response rating, Giant Foxtail” value (giant foxtail; [4]) of the same compound?
The value was 0.

What about the “Plant response rating, Barnyardgrass” value (barnyardgrass; [1]) of the same compound?
Its value is 15.

And the “Plant response rating, Barnyardgrass” value (barnyardgrass; [2])?
Its value is 20.

And the “Plant response rating, Barnyardgrass” value (barnyardgrass; [3])?
Its value is 50.

And the “Plant response rating, Barnyardgrass” value (barnyardgrass; [4])?
The value was 0.

What about the “Plant response rating, Common Waterhemp” value (common waterhemp; [1]) of the same compound?
Its value is 0.

And the “Plant response rating, Common Waterhemp” value (common waterhemp; [2])?
The value was 25.

And the “Plant response rating, Common Waterhemp” value (common waterhemp; [3])?
Its value is 75.

What about the “Plant response rating, Common Waterhemp” value (common waterhemp; [4]) of the same compound?
The value was 0.

What about the “Plant response rating, Field Bindweed” value (field bindweed; [1]) of the same compound?
Its value is 5.

And the “Plant response rating, Field Bindweed” value (field bindweed; [2])?
Its value is 50.

What about the “Plant response rating, Field Bindweed” value (field bindweed; [3]) of the same compound?
The value was 75.

And the “Plant response rating, Field Bindweed” value (field bindweed; [4])?
Its value is 0.
